Reference: patent publication US7989463B2, “Biccyclic compounds as GATA modulators” (Dr. Reddy's Laboratories Limited, priority 2008, dated 2011)

Key:
GATA1 = assay: GATA Assay: GATA Translucent Reporter Vector luciferase assay in transfected HepG2 cells; type: cell-based, Human; conditions: luciferase normalized to total protein
Experimental: Human HepG2 (ATCC) cells were grown in Eagle's Minimum Essential Media (MEM) containing 10% heat inactivated Fetal Bovine Serum (FBS) (Invitrogen) and 5 mL Penicillin-Streptomycin (Invitrogen) in T75 flasks (Corning) in a 37° C./5% CO2 tissue culture incubator (Thermo Electron Corporation) prior to the study. 96-well plates (Corning) were seeded in MEM containing 10% FBS to yield ˜50% confluency. The following day, cells were transfected using FuGENE 6 transfection reagent (Roche) and […] GATA Translucent Reporter Vector (Panomics) according the manufacturer's (Roche) protocol and incubated for about 10-19 h. The next day, the cells were treated with equal volumes of vehicle, dimethyl sulfoxide (DMSO) (Hybri-Max Sterile Filtered Sigma Aldrich) or compounds of formula (I) (in DMSO) diluted in MEM containing 1% FBS. The treated cells were incubated about 8-19 h. The next day the treatment media was removed and the cells were lysed and assayed for luciferase activity using the luciferase assay system (Promega) and using the Envision plate reader (Perkin Elmer). The lysates were also used to measure total protein content with the MicroBCA protein assay kit (Pierce) using the Multiskan Ascent plate reader at 570 nm. Luciferase values were normalized to total protein and fold induction was calculated.
Compounds that show an increase of ≧40% in luciferase levels at ≦20 μm concentration were considered as GATA activators.

| melting point | Structure (SMILES) | GATA1 Activation (Fold Change Vs Control) (GATA1; 5μ compound) | GATA1 Activation (Fold Change Vs Control) (GATA1; 10μ compound) |
| --- | --- | --- | --- |
|  | Cn1cc(-c2nc3c(c(Nc4ccc(C5(C(=O)O)CCC5)cc4)n2)CCC3)cn1 [Example 7, 1-{4-[2-(1-methyl-1H-pyrazol-4-yl)-6,7-dihydro-5H-cyclopentapyrimidin-4-ylamino]-phenyl}-cyclobutanecarboxylic acid] | 1.79 Fold Change Vs Control | 2.09 Fold Change Vs Control |
| 245 to 247 °C | O=C(O)C1(c2ccc(Nc3nc(N4CCCC4)nc4c3CCC4)cc2)CCC1 [Example 6, 1-[4-(2-pyrrolidin-1-yl-6,7-dihydro-5H-cyclopentapyrimidin-4-ylamino)-phenyl]-cyclobutanecarboxylic acid] |  |  |
|  | O=C(O)C1(c2ccc(Nc3nc(NC4CCCC4)nc4c3CCC4)cc2)CCC1 [Example 13, 1-[4-(2-cyclopentylamino-6,7-dihydro-5H-cyclopentapyrimidin-4-ylamino)-phenyl]-cyclobutanecarboxylic acid] | 1.94 Fold Change Vs Control | 1.67 Fold Change Vs Control |
|  | O=C(O)C1(c2ccc(Nc3nc(Nc4cccc(F)c4)nc4c3CCC4)cc2)CCC1 [Example 12, 1-{4-[2-(3-fluoro-phenylamino)-6,7-dihydro-5H-cyclopentapyrimidin-4-ylamino]-phenyl}-cyclobutanecarboxylic acid] | 3.22 Fold Change Vs Control | 3.38 Fold Change Vs Control |
| 165 to 167 °C | O=C(O)C1(c2ccc(Nc3nc(N4CCC(O)CC4)nc4c3CCC4)cc2)CCC1 [Example 5, 1-{4-[2-(4-hydroxy-piperidin-1-yl)-6,7-dihydro-5H-cyclopentapyrimidin-4-ylamino]-phenyl}-cyclobutanecarboxylic acid] |  |  |
|  | CC(=O)c1ccc(-c2nc3c(c(Nc4ccc(C5(C(=O)O)CCC5)cc4)n2)CCC3)cc1 [Example 9, 1-{4-[2-(4-acetyl-phenyl)-6,7-dihydro-5H-cyclopentapyrimidin-4-ylamino]-phenyl}-cyclobutanecarboxylic acid] | 2.90 Fold Change Vs Control | 3.50 Fold Change Vs Control |
|  | CC(C)(C)Nc1nc(Nc2ccc(C3(C(=O)O)CCCC3)cc2)nc2c1CCC2 [Example 10, 1-[4-(4-tert-butylamino-6,7-dihydro-5H-cyclopentapyrimidin-2-ylamino)-phenyl]-cyclopentanecarboxylic acid] | 2.07 Fold Change Vs Control | 2.43 Fold Change Vs Control |
| 321 to 325 °C | O=C(O)C1(c2ccc(Nc3nc(C4CCCC4)nc4c3CCC4)cc2)CCCC1 [Example 1, 1-[4-(2-cyclopentyl-6,7-dihydro-5H-cyclopentapyrimidin-4-ylamino)-phenyl]-cyclopentanecarboxylic acid] |  |  |
| 279 to 281 °C | O=C(O)C1(c2ccc(Nc3nc(N4CCOCC4)nc4c3CCC4)cc2)CCC1 [Example 4, 1-[4-(2-morpholin-4-yl-6,7-dihydro-5H-cyclopentapyrimidin-4-ylamino)-phenyl]-cyclobutanecarboxylic acid] | 2.45 Fold Change Vs Control | 3.45 Fold Change Vs Control |
